Reference: PubChem BioAssay AID449744 (Sanford-Burnham Center for Chemical Genomics, 2010)
The source made the active and inactive calls.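 The calls were made as follows: active = less UV crosslinking of translation factor eIF4H to capped RNA at 100 µM than solvent-only control; inactive = the rest.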

target: Eukaryotic translation initiation factor 4H (Homo sapiens) (UniProt Q15056); assay: blockers of eIF4H-RNA cap-proximal interaction – biochemical, UV crosslinking, autoradiography, orthogonal assay for translation initiation inhibitor project, SAR follow-up (AID 449744); settings: UV crosslinking eIF4H:capped mRNA

For `COc1cc(/C=N/NC(=O)c2ccccc2)ccc1OCC(=O)Nc1ccc([N+](=O)[O-])cc1`, which outcome is on record?
The outcome was “inactive”.

With `CCn1c(=O)n(CC)c2cc(NC(=O)C(C)c3ccccc3)c(Br)cc21` (configuration not stated) as the compound, how does the outcome read?
Its outcome is “inactive”.

`O=C(Nc1cccc2ncccc12)c1ccccc1Cl` was tested. Which outcome did it give?
Its outcome is “inactive”.

How did the outcome turn out when `CCN1CCN(S(=O)(=O)c2ccc(Cl)c(C(=O)Nc3ccc(C(=O)N(CC)CC)cc3)c2)CC1` was run?
Its outcome is “inactive”.

With `CCOC(=O)c1ccc2c(c1)N(CC)C(=O)c1ccccc1S2` as the compound, how does the outcome read?
The outcome was “inactive”.

Which outcome does the source give for `CC(C)c1ccc(OC(=O)c2cccc(S(=O)(=O)N3CCN(C)CC3)c2)cc1` here?
The outcome was “inactive”.

`Cc1ccc(NC(=O)CN2C(=O)N/C(=C/c3ccccc3OCc3cccc(C(=O)O)c3)C2=O)cc1` was tested. Which outcome did it give?
Its outcome is “inactive”.

For `Cc1ccc(OC(C)C(=O)Nc2ccc3c(c2)n(C)c(=O)n3C)c(C)c1` (configuration not stated), which outcome is on record?
The outcome was “inactive”.

For `O=C(COc1ccc(C=NNC(=O)c2ccc(O)cc2)cc1)Nc1ccc([N+](=O)[O-])cc1`, which outcome is on record?
The outcome was “inactive”.

For `COC(=O)c1c(Sc2ccccc2)c2ccccc2n1C`, which outcome is on record?
The outcome was “inactive”.

How did the outcome turn out when `COc1ccc(N2Cc3cccc(C(=O)N4CCN(C(=O)c5ccco5)CC4)c3C2=O)cc1` was run?
Its outcome is “inactive”.

For `COc1ccc(N2Cc3cccc(C(=O)NC(C)CCc4ccco4)c3C2=O)cc1` (configuration not stated), which outcome is on record?
The outcome was “inactive”.

Which outcome does the source give for `COc1cc([N+](=O)[O-])ccc1NC(=O)COC(=O)c1ccc(NC(N)=O)cc1` here?
Its outcome is “inactive”.

With `O=C(Nc1cccc2ncccc12)c1ccc(Cl)cc1` as the compound, how does the outcome read?
The outcome was “inactive”.

For `COc1cc(C=NNC(=O)c2ccccc2O)ccc1OCC(=O)Nc1ccccc1`, which outcome is on record?
Its outcome is “inactive”.

With `Cc1ccc(NC(=O)C2CCN(C(=O)c3cccs3)CC2)c(C)c1` as the compound, how does the outcome read?
Its outcome is “inactive”.

`O=C(Nc1ccccc1)C1CCN(C(=O)c2cccs2)CC1` was tested. Which outcome did it give?
Its outcome is “inactive”.

With `CCc1nnc(NC(=O)CSc2ccc(-c3ccco3)nn2)s1` as the compound, how does the outcome read?
Its outcome is “inactive”.

For `CC(C)NC(=O)C(C)N1CCN(S(=O)(=O)c2ccc3ccccc3c2)CC1` (configuration not stated), which outcome is on record?
The outcome was “inactive”.

With `CCOC(=O)N1CCC(NC(=O)c2cccc3c2C(=O)N(c2ccc(OC)cc2)C3)CC1` as the compound, how does the outcome read?
The outcome was “inactive”.

Which outcome does the source give for `CCOC(=O)c1ccc2c(c1)N(C)C(=O)c1ccccc1S2` here?
Its outcome is “inactive”.

How did the outcome turn out when `COc1cc([N+](=O)[O-])ccc1NC(=O)COC(=O)c1ccc2c(c1)NC(=O)CS2` was run?
The outcome was “inactive”.
